Biological target: T1, human S1P1 receptor (Homo sapiens, UniProt P21453)
T1 construct: expressed in transfected cells; host or cells: cells stably expressing the S1P1 receptor; membranes used
Experiment: GTP γ35S binding assay for S1P1 activity
Format: biochemical
Settings: membranes of cells stably expressing the S1P1 receptor; agonist-induced GTP γ35S binding; read-out: EC50 at the S1P1 receptor from GTP γ35S
Description: Novel compounds were synthesized and tested for S1P1 activity using the GTP γ^35S binding assay. These compounds may be assessed for their ability to activate or block activation of the human S1P1 receptor in cells stably expressing the S1P1 receptor. […] binding was measured in the medium containing (mM) HEPES 25, pH 7.4, MgCl2 10, NaCl 100, dithitothreitol 0.5, digitonin 0.003%, 0.2 nM GTP γ^35S, and 5 μg membrane protein in a volume of 150 μl. Test compounds were included in the concentration range from 0.08 to 5,000 nM unless indicated otherwise. Membranes were incubated with 100 μM 5′-adenylylimmidodiphosphate for 30 min, and subsequently with 10 μM GDP for 10 min on ice. Drug solutions and membrane were mixed, and then reactions were initiated by adding GTP γ^35 S and continued for 30 min at 25° C. Reaction mixtures were filtered over Whatman GF/B filters under vacuum, and washed three times with 3 mL of ice-cold buffer (HEPES 25, pH7.4, MgCl2 10 and NaCl 100). Filters were dried and mixed with scintillant, and counted for ^35S activity using a β-counter. Agonist-induced GTP γ^35 S binding was obtained by subtracting that in the absence of agonist. Binding data were analyzed using a non-linear regression method. In case of antagonist assay, the reaction mixture contained 10 nM […] in the presence of test antagonist at concentrations ranging from 0.08 to 5000 nM.

T1 sequence (P21453 whole entry): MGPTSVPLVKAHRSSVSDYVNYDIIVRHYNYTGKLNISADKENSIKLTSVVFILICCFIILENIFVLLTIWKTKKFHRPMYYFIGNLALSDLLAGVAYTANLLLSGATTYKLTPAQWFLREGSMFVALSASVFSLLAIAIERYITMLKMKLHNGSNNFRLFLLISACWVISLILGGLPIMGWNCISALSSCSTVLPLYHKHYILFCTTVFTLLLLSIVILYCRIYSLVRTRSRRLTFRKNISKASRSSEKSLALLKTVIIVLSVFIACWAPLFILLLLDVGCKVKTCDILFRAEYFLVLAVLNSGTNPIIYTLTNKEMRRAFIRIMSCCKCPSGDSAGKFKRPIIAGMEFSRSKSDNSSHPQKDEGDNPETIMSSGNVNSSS

EC50: 390 nM
Structure (SMILES): O=C(O)C1CN(Cc2ccc(C#CCCCCc3ccccc3)c3cccnc23)C1 [Compound 1]
